The NIST ThermoML archive (doi:10.1016/j.jct.2017.07.014)

Key:
[1] = refractive index (other wavelength) (dimensionless); settings: 108 kPa, Liquid, Wavelength=632.8 nm, minimum deviation method
[2] = refractive index (other wavelength) (dimensionless); xn = mol fraction of the nth substance listed; settings: 108 kPa, Liquid, Wavelength=632.8 nm, minimum deviation method, x2 = 0

CCCCn1cc[n+](C)c1.F[P-](F)(F)(F)(F)F [1-butyl-3-methylimidazolium hexafluorophosphate]
[1]
Settings | refractive index
315.21 K | 1.4038
317.26 K | 1.4032
319.23 K | 1.4027
321.47 K | 1.4021
323.47 K | 1.4016
325.4 K | 1.4011

CCO [ethanol] + CCCCn1cc[n+](C)c1.F[P-](F)(F)(F)(F)F
[2]
Settings | refractive index
315.24 K | 1.3509
317.21 K | 1.3501
319.26 K | 1.3492
321.31 K | 1.3483
323.3 K | 1.3474
325.39 K | 1.3465

CCO [ethanol]
[1]
Settings | refractive index
315.24 K | 1.3509
317.21 K | 1.3501
319.26 K | 1.3492
321.31 K | 1.3483
323.3 K | 1.3474
325.39 K | 1.3465
